Experiment: DSC MRI with gadoteridol (day 1) and ferumoxytol (day 2) in subjects with Glioblastoma multiforme
Assay type: in vivo
Text: In this example, 17 subjects with Glioblastoma multiforme (GBM) were prospectively studied on institutional review board approved protocols. Informed written consent was obtained from each subject. Subjects underwent MRI sessions consisting of two consecutive days of MRI scans. On the first day, pre- and post-contrast T1-weighted images and DSC-MRI were acquired using gadoteridol gadolinium (III) chelate (ProHance, Bracco Diagnostic Inc., Princeton, N.J.). On the following day, the same MRI sequences were acquired using ferumoxytol (provided by AMAG Pharmaceuticals, Inc., Cambridge, Mass.). […]
All Gd and Fe DSC data were first motion corrected within each dynamic series and then between the series using FMRIB's Linear Image Registration Tool (FLIRT) within FM RIB Software Library (FSL). […] The Gd CR extravasating rate constant was calculated either with the Equation 1 fitting approach to obtain K2, or the KL constant defined as the slope of the linear portion of the graphed points using Equation 2. In this example, linear regression was performed starting at 40 seconds post CR injection to ensure minimal influence of CR transient period (period (i) shown in FIGS. 2E and 2F described below) on KL quantification. […]

In the case of CC(O)CN1CCN(CC(=O)[O-])CCN(CC(=O)[O-])CCN(CC(=O)[O-])CC1.[Gd+3] (centres unmarked) [gadoteridol, gadoteridol gadolinium (III) chelate], the “complications during the MR examinations” value (17 GBM subjects, gadoteridol 0.1 mmol/kg i.v., ferumoxytol 1 mg/kg, 2 mg/kg or 75 mg i.v.) is reported as “No subject had any complications” and the “pixels with appreciable linearity departure (period iii, intravasation)” value (Equation 2 linearization, data up to 70 s post CR injection) is reported as less than 0.1%.
